Reference: BigSolDB 2.1

NC(=O)N1c2ccccc2CC(=O)c2ccccc21
solubility (mole fraction)
Conditions | in THF | in acetone | in acetonitrile | in ethanol | in isopropanol | in methanol | in n-butanol | in n-propanol
288.15 K | 0.00204 | 0.00105 | 0.000641 | 0.000273 | 0.000151 | 0.000534 | 0.000251 | 0.000245
293.15 K | 0.00217 | 0.0012 | 0.000751 | 0.000322 | 0.000187 | 0.000619 | 0.000309 | 0.000301
298.15 K | 0.00241 | 0.00134 | 0.000839 | 0.000383 | 0.000217 | 0.000759 | 0.000355 | 0.000358
303.15 K | 0.00266 | 0.00154 | 0.00103 | 0.000488 | 0.000299 | 0.000907 | 0.000479 | 0.000475
308.15 K | 0.00308 | 0.00182 | 0.00122 | 0.000617 | 0.000413 | 0.00111 | 0.000617 | 0.000616
